In patent US3944549A, “Amino derivatives of 1,4-benzodioxan” (priority 1972, dated 1976):
Where a name gives a salt, the structure may show the parent alone.

What was measured:
[1] = tested on: adrenergic receptors; assay: α-blocking action: reversal of the hypertensive effect of adrenalin; format: in vivo, dogs
[2] = tested on: vertigo; assay: Vertigo in clinical tests; format: in vivo, man
[3] = Solubility in water; format: physicochemical
[4] = tested on: digestive ulcers; settings: TOLDY et al. 1966; cited from earlier work

| SMILES | α-blocking activity ([1]; administered parenterally) | vertigo [2] | solubility in water [3] | activity in the treatment of digestive ulcers [4] | α-blocking activity (counteracting the hypertensive effects of adrenalin) ([1]; orally to dogs) |
| --- | --- | --- | --- | --- | --- |
| OCCN1CCN(CC2COc3ccccc3O2)CC1 (centres unmarked) [Example 1, 1-[2-(1,4-Benzodioxanyl)-methyl]-4-(2-hydroxyethyl)-piperazine dihydrochloride] | α-blocking | caused vertigo in the majority of cases | soluble in water | – | – |
| OCCN1CCN(CC2COc3ccccc3O2)CC1 (centres unmarked) [free base, 1-[2-(1,4-benzodioxanyl)-methyl]-4-(2-hydroxyethyl)-piperazine, reference compound] | – | – | – | devoid of such activity | does not show any α-blocking activity |
